Laboratory results reported in patent US8148391B2 (Cephalon, Inc., priority 2006, dated 2012).
pIC50: −log10 of the molar value. Read-outs that look alike come from different tables or passages of the source.

Tests used:
[1] = molecular target: T1, c-Met (cytoplasmic domain) (Homo sapiens, UniProt P08581); assay: c-Met Kinase Assay (same methods as for ALK, with modifications); format: biochemical
T1 construct: 10 ng/mL c-Met (cytoplasmic domain, Invitrogen Corporation #PV3143); purchased Invitrogen Corporation PV3143
Method in brief: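 Plates were coated with phospholipase C-γ substrate (10 μg/mL) in TBS, and the reaction was started with 10 ng/mL c-Met cytoplasmic domain and run 15 min at 37 °C. Phosphoproduct was detected with Eu-N1-labelled PT66 antibody. IC50 came from a variable-slope sigmoidal fit of percent inhibition vs log concentration.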

[2] = molecular target: T2, baculovirus-expressed ALK (Homo sapiens, UniProt Q9UM73); assay: ALK Kinase Assay (ELISA-type, time-resolved fluorescence); format: biochemical
T2 construct: host or cells: baculovirus expression system
Method in brief: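 Plates coated with phospholipase C-γ substrate (10 μg/mL in TBS); reaction started with 30 ng/ml ALK and run 15 min at 37° C. Phosphorylated substrate detected with Eu-N1-labeled PT66 antibody. IC50 from sigmoidal variable-slope fit of percent inhibition vs log concentration.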

[3] = c-Met kinase inhibition, 1 μM ATP (Km level), read-out: cMet Activity
[4] = ALK kinase inhibition, 1 μM ATP (Km level), read-out: ALK Activity
[5] = 1 μM ATP (Km level), read-out: cMet Activity (c-Met Kinase Inhibition, IC50)
[6] = 1 μM ATP (Km level), read-out: ALK Activity (ALK Kinase Inhibition, IC50)
[7] = c-Met kinase inhibition, 1 μM ATP, read-out: cMet Activity
[8] = ALK kinase inhibition, 1 μM ATP, read-out: ALK Activity

T1 sequence (P08581 956-1390 limits assumed): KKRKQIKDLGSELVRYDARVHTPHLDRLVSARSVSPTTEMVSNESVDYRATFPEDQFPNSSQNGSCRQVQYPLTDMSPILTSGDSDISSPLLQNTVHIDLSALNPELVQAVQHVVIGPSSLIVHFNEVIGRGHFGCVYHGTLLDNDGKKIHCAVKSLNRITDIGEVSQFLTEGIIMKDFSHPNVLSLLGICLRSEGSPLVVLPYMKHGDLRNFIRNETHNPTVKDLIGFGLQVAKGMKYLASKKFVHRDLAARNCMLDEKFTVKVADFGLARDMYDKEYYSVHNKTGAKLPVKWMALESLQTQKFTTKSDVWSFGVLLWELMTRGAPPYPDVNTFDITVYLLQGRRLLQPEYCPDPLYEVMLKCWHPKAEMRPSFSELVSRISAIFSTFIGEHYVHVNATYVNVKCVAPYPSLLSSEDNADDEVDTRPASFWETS
T2 sequence (Q9UM73 19-1620): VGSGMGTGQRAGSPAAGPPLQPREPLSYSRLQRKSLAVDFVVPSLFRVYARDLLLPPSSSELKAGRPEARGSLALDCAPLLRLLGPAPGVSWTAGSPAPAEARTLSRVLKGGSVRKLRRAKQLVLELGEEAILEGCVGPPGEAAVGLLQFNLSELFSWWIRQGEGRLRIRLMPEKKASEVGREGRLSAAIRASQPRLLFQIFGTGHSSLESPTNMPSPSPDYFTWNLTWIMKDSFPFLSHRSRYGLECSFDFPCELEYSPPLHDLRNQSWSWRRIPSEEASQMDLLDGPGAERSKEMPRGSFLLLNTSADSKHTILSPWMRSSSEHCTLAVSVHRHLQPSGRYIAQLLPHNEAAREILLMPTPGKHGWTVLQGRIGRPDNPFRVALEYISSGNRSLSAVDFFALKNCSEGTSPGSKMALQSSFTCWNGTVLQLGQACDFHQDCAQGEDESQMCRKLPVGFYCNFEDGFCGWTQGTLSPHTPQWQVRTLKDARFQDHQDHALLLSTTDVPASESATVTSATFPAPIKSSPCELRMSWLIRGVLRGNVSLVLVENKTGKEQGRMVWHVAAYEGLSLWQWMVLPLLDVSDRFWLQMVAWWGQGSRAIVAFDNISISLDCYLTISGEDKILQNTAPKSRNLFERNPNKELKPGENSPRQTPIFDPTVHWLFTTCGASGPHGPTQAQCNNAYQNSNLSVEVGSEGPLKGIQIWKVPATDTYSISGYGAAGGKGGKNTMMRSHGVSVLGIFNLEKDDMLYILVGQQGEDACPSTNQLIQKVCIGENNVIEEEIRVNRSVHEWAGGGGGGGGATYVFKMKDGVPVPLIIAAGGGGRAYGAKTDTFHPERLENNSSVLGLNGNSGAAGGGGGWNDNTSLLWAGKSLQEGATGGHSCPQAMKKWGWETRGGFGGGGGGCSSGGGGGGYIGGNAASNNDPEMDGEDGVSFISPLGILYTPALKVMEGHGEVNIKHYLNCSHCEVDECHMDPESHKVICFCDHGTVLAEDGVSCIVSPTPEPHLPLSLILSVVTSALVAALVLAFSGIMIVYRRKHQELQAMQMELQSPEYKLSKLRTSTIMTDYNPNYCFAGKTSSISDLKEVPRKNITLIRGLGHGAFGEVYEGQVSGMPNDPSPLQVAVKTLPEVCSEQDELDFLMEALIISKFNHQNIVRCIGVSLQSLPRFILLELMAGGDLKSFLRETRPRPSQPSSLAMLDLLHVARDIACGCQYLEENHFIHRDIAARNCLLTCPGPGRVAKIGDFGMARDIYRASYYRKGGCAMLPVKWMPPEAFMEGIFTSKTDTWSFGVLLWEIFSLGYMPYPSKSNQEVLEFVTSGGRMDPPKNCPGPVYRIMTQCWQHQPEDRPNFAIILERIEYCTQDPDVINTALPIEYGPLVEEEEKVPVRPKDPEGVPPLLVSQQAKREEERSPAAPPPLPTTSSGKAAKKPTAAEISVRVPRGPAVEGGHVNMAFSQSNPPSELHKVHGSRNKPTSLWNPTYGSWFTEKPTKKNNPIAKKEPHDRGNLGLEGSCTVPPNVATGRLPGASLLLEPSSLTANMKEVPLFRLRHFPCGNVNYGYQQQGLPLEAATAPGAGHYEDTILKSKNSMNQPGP

Row | Compound | pIC50 [1, 3] | pIC50 [2, 4] | pIC50 [1, 7] | pIC50 [2, 8] | other results
1 | CCN1C(=O)OCCc2ccc(Nc3ncc(Cl)c(Nc4c(F)cccc4C(=O)NC)n3)cc21 [Example 1882, 2-[5-Chloro-2-(5-ethyl-6-oxo-5,6,8,9-tetrahydro-7-oxa-5-aza-benzocyclohepten-3-ylamino)-pyrimidin-4-ylamino]-3-fluoro-N-methyl-benzamide] | > 7.00 | > 7.00 | – | – | –
2 | COc1cc2c(cc1Nc1ncc(Cl)c(Nc3ccc(N4CCN(C)CC4)cc3OC)n1)CCN(CC(N)=O)CC2 [Example 807, 2-(7-{5-Chloro-4-[2-methoxy-4-(4-methyl-piperazin-1-yl)-phenylamino]-pyrimidin-2-ylamino}-8-methoxy-1,2,4,5-tetrahydro-benzo[d]azepin-3-yl)-acetamide] | – | – | – | – | pIC50 [1, 5]: < 5.00; pIC50 [2, 6]: > 7.00
3 | C=CCOc1cc(N(C)C)cc(F)c1Nc1nc(Nc2ccc3c(c2)CCOC(=O)N3C)ncc1Cl [Example 1709, 2-[4-(2-Allyloxy-4-dimethylamino-6-fluoro-phenylamino)-5-chloro-pyrimidin-2-ylamino]-5-methyl-8,9-dihydro-5H-7-oxa-5-aza-benzocyclohepten-6-one] | – | – | 6.00 to 7.00 | > 7.00 | –
4 | CNC(=O)c1ccccc1Nc1nc(Nc2ccc3c(c2)N(C)CCN(C(=O)n2ccnc2)C3)ncc1Cl [Example 486, 2-{5-Chloro-2-[4-(imidazole-1-carbonyl)-1-methyl-2,3,4,5-tetrahydro-1H-benzo[e][1,4]diazepin-8-ylamino]-pyrimidin-4-ylamino}-N-methyl-benzamide] | > 7.00 | > 7.00 | – | – | –
5 | CCN1C(=O)CN(C(C)=O)Cc2ccc(Nc3ncc(Cl)c(Nc4c(C)csc4C(=O)NC)n3)cc21 [Example 1852, 3-[2-(4-Acetyl-1-ethyl-2-oxo-2,3,4,5-tetrahydro-1H-benzo[e][1,4]diazepin-8-ylamino)-5-chloro-pyrimidin-4-ylamino]-4-methyl-thiophene-2-carboxylic acid-methylamide] | – | – | > 7.00 | > 7.00 | –
6 | CNC(=O)c1cccc(F)c1Nc1nc(Nc2ccc3c(c2)N(C(=O)CN2CCCC2)CCCC3(C)C)ncc1Cl [Example 1603, 2-{5-Chloro-2-[5,5-dimethyl-1-(2-pyrrolidin-1-yl-acetyl)-2,3,4,5-tetrahydro-1H-benzo[b]azepin-8-ylamino]-pyrimidin-4-ylamino}-3-fluoro-N-methyl-benzamide] | – | – | 6.00 to 7.00 | 6.00 to 7.00 | –
7 | CC1(C)CCC(=O)Nc2cc(Nc3ncc(Cl)c(Nc4c(F)cccc4C(=O)NCC#N)n3)ccc21 [Example 1080, 2-[5-Chloro-2-(5,5-dimethyl-2-oxo-2,3,4,5-tetrahydro-1H-benzo[b]azepin-8-ylamino)-pyrimidin-4-ylamino]-N-cyanomethyl-3-fluoro-benzamide] | – | – | – | – | pIC50 ([1]; 1 μM ATP (Km level), 10 ng/mL c-Met, read-out: cMet Activity (c-Met kinase inhibition, IC50 class)): > 7.00; pIC50 ([2]; 1 μM ATP (Km level), 30 ng/ml ALK, 37° C., 15 minutes, read-out: ALK Activity (ALK kinase inhibition, IC50 class)): > 7.00
8 | COc1cc2c(cc1Nc1ncc(Cl)c(Nc3ccc(N4CCOCC4)cc3OC)n1)CCN(CC(=O)OC(C)C)CC2 [Example 800, {7-[5-Chloro-4-(2-methoxy-4-morpholin-4-yl-phenylamino)-pyrimidin-2-ylamino]-8-methoxy-1,2,4,5-tetrahydro-benzo[d]azepin-3-yl}-acetic acid isopropyl ester] | – | – | – | – | pIC50 [1, 5]: < 5.00; pIC50 [2, 6]: > 7.00
9 | CNC(=O)c1ccccc1Nc1nc(Nc2cccc3c2C(=O)NC(C)CN3C(=O)C(F)(F)F)ncc1Cl (centres unmarked) [Example 229, 2-{5-Chloro-2-[3-methyl-5-oxo-1-(2,2,2-trifluoro-acetyl)-2,3,4,5-tetrahydro-1H-benzo[e][1,4]diazepin-6-ylamino]-pyrimidin-4-ylamino}-N-methyl-benzamide] | < 5.00 | < 5.00 | – | – | –
10 | CN1Cc2cc(Nc3ncc(Cl)c(Nc4cccc5c4OC(F)(F)O5)n3)ccc2CCC1=O [Example 1803, 8-[5-Chloro-4-(2,2-difluoro-benzo[1,3]dioxol-4-ylamino)-pyrimidin-2-ylamino]-2-methyl-1,2,4,5-tetrahydro-benzo[c]azepin-3-one] | – | – | 6.00 to 7.00 | > 7.00 | –
